# Assay results taken from US8124137B2, “Composition for prevention and/or treatment of tumors containing acacia bark derivative” (Mimozax Co., Ltd., priority 2006, dated 2012).
# System: mouse tumor MM46 breast cancer cells
# Assay: Tumor growth inhibition test in mice
# Type: in vivo
# Conditions: Positive Control group: 6.25 mg/kg intraperitoneally on days 7, 11 and 14
# Experimental: The required weighed amounts of Acacia Hot Water Extract No. 1 described in Production Example 2 were dispersed in water at 60° C. to prepare test drinks 1, 2 and 3 containing Acacia Hot Water Extract No. 1 at 7.8 mg/mL, 15.6 mg/mL and 31.3 mg/mL, respectively.
# The required weighed amounts of Acacia Hot Water Extract No. 1 described in Production Example 2 were mixed with commercially available feed to prepare test feeds 2 and 3 containing Acacia Hot Water Extract No. 1 at 15.6 mg/g and 31.3 mg/g, respectively.
# Female C3H/HeN mice were assigned to a Control 1 group, Test 1 group, Test 2 group, Test 3 group and Positive Control group as shown in the table below.
# First, 2×10^6 mouse tumor MM46 breast cancer cells were transplanted subcutaneously into the inguinal region of the mice grouped as indicated above according to the method described in Abe, S. et al., Gann 73, 91-96 (1982) and Ohasi, K. et al., Yakugaku Zasshi 113, 396-399 (1993).
# Tap water was given to the Control 1 group while Test Drinks 1 to 3 were given to the Test 1 to Test 3 groups, respectively, as drinking water, starting on the day of tumor transplantation. In addition, tap water was given to the Positive Control group, and this group was also intraperitoneally administered 6.25 mg/kg of lentinan on days 7, 11 and 14 following tumor transplantation.
# Consequently, Test Drink 2 and Test Drink 3 were replaced with tap water on day 7 of tumor transplantation. In addition, five mice each of the Test 2 group were reassigned to a Control 2 group and a Test 2a group, while five mice each of the Test 3 group were reassigned to a Control 3 group and a Test 3a group. Animals of the Control 2 group and Control 3 group were continued to be fed the control feed. The Test 2a group and Test 3a group were fed Test Feed 2 and Test Feed 3, respectively, instead of the control feed.
# Growth of the tumor transplanted subcutaneously into the inguinal regions of the mice was observed by palpation for 4 weeks every 3 or 4 days, and tumor diameter was also measured. In addition, survival times (days) and body weights were also measured. The tumors were excised and their wet weights were measured following completion of the test.
# Furthermore, the Student's t-test was used for statistical testing.
substance,measurement,setting,value
lentinan,Average tumor diameter,day 14 after transplantation,7.4 ± 6.58 mm
same,reduction rate versus Control 1 group (average tumor diameter),day 14 after transplantation,43.5%
same,Average tumor diameter,day 28 after transplantation,14.0 ± 6.12 mm
same,reduction rate versus Control 1 group (average tumor diameter),day 28 after transplantation,41.2%
